Results: patent US10722501B2 (BAYER AKTIENGESELLSCHAFT, priority 2016, dated 2020)

Target: T1, recombinant full-length human prolyl endopeptidase (PREP) (Homo sapiens, UniProt P48147)
T1 construct: To recombinant full-length human prolyl endopeptidase (PREP, R&D-Systems, 4308-SE); purchased R&D-Systems 4308-SE
T1 sequence (P48147 1-710): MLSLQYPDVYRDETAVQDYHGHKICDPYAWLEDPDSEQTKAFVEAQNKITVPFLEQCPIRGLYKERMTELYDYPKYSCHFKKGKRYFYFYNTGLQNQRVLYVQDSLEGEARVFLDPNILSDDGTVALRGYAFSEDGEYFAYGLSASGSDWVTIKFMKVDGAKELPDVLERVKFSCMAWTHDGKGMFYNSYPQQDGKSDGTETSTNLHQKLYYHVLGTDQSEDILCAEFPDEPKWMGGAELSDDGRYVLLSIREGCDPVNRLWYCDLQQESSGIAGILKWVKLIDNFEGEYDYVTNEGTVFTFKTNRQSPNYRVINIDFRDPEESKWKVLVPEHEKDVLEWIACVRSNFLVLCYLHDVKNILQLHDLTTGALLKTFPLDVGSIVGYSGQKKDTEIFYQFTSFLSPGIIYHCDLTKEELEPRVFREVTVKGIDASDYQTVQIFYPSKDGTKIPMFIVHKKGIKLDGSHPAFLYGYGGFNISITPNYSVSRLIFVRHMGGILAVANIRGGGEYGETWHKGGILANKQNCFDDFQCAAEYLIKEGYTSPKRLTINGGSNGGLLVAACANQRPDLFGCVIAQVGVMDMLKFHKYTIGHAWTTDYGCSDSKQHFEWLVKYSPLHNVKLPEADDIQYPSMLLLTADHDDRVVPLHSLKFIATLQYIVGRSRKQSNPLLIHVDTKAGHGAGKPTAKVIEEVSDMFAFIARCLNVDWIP
Assay: Biochemical human prolyl endopeptidase (PREP) assay with fluorescently labelled substrate
Conditions: substrate Z-Gly-Pro-AMC 50 μM, 32° C., 60 min; some as mean values from multiple independent determinations
How it was run: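 0.4 nM (final, example) recombinant PREP in pH 7.5 Tris buffer with EDTA, GSH, BSA and Brij-35; compounds at 1 nM to 30 μM. Reaction started with 50 μM Z-Gly-Pro-AMC and followed by fluorescence (ex 360/em 465 nm) at 32° C for 60 min. IC50 interpolated from percent activity based on initial slopes.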

IC50 [nM]	SMILES
2.7	O=C([C@@H]1CCCc2nn(Cc3ncc(C(F)(F)F)cc3Cl)c(=O)n21)N1CC(F)C1 [Example 402, (5S)-2-{[3-Chloro-5-(trifluoromethyl)pyridin-2-yl]methyl}-5-[(3-fluoroazetidin-1-yl)carbonyl]-5,6,7,8-tetrahydro[1,2,4]triazolo[4,3-a]pyridin-3(2H)-one]
3.8	O=C([C@@H]1CCCc2nn(CC3(c4cccc(Cl)n4)CC3)c(=O)n21)N1CC(F)C1 [Example 348, (5S)-2-{[1-(6-Chloropyridin-2-yl)cyclopropyl]methyl}-5-[(3-fluoroazetidin-1-yl)carbonyl]-5,6,7,8-tetrahydro[1,2,4]triazolo[4,3-a]pyridin-3(2H)-one]
0.3	O=C([C@@H]1CCCc2nn(Cc3ncc(F)cc3F)c(=O)n21)N1CC[C@H](F)C1 [Example 581, (5S)-2-[(3,5-Difluoropyridin-2-yl)methyl]-5-{[(3S)-3-fluoropyrrolidin-1-yl]carbonyl}-5,6,7,8-tetrahydro[1,2,4]triazolo[4,3-a]pyridin-3(2H)-one]
2.95	CC1Cc2nn(Cc3ccnc(C(F)(F)F)c3F)c(=O)n2C(C(=O)N2CCC(F)(F)C2)C1 (racemic) [Example 334, (5RS,7RS)-5-[(3,3-Difluoropyrrolidin-1-yl)carbonyl]-2-{[3-fluoro-2-(trifluoromethyl)pyridin-4-yl]methyl}-7-methyl-5,6,7,8-tetrahydro[1,2,4]triazolo[4,3-a]pyridin-3(2H)-one]
480	O=C([C@@H]1CCCc2nn(Cc3ccc(Cl)nc3)c(=O)n21)N1CC(F)C(F)C1 (single isomer, unassigned) [Example 551]
0.37	O=C(C1CCCc2nn(Cc3ccc(Cl)nc3)c(=O)n21)N1CC[C@H](F)C1 (mixture of isomers) [Example 561, (5RS)-2-[(6-Chlorpyridin-3-yl)methyl]-5-{[(3S)-3-fluorpyrrolidin-1-yl]carbonyl}-5,6,7,8-tetrahydro[1,2,4]triazolo[4,3-a]pyridin-3(2H)-on]
3.7	CC1Cc2nn(Cc3ccc(C(F)(F)F)nc3)c(=O)n2C(C(=O)N2CC(F)C2)C1 (racemic) [Example 341, (5RS,7RS)-5-[(3-Fluoroazetidin-1-yl)carbonyl]-7-methyl-2-{[6-(trifluoromethyl)pyridin-3-yl]methyl}-5,6,7,8-tetrahydro[1,2,4]triazolo[4,3-a]pyridin-3(2H)-one]
1.1	COc1ccc(Cn2nc3n(c2=O)[C@H](C(=O)N2CC[C@H](F)C2)CCC3)cn1 [Example 430, (5S)-5-{[(3S)-3-Fluoropyrrolidin-1-yl]carbonyl}-2-[(6-methoxypyridin-3-yl)methyl]-5,6,7,8-tetrahydro[1,2,4]triazolo[4,3-a]pyridin-3(2H)-one]
1.3	O=C([C@@H]1CCCc2nn(Cc3cc(C(F)(F)F)c(Cl)cn3)c(=O)n21)N1C[C@@H](F)[C@@H](F)C1 [Example 372, (5S)-2-{[5-Chloro-4-(trifluoromethyl)pyridin-2-yl]methyl}-5-{[(3R,4S)-3,4-difluoropyrrolidin-1-yl]carbonyl}-5,6,7,8-tetrahydro[1,2,4]triazolo[4,3-a]pyridin-3(2H)-one]
5.15	O=C([C@@H]1CCCc2nn(Cc3nc(C(F)(F)F)no3)c(=O)n21)N1C[C@@H](F)[C@@H](F)C1 [Example 500, (5S)-5-{[(3R,4S)-3,4-Difluoropyrrolidin-1-yl]carbonyl}-2-{[3-(trifluoromethyl)-1,2,4-oxadiazol-5-yl]methyl}-5,6,7,8-tetrahydro[1,2,4]triazolo[4,3-a]pyridin-3(2H)-one]
1.4	O=C([C@@H]1CCCc2nn(Cc3cccc(C(F)(F)F)c3)c(=O)n21)N1CC(F)C1 [Example 447, (5S)-5-[(3-Fluoroazetidin-1-yl)carbonyl]-2-[3-(trifluoromethyl)benzyl]-5,6,7,8-tetrahydro[1,2,4]triazolo[4,3-a]pyridin-3(2H)-one]
8.65	O=C([C@@H]1CCCc2nn(Cc3nccc(C(F)(F)F)c3Cl)c(=O)n21)N1CC[C@H](O)C1 [Example 391, (5S)-2-{[3-Chloro-4-(trifluoromethyl)pyridin-2-yl]methyl}-5-{[(3S)-3-hydroxypyrrolidin-1-yl]carbonyl}-5,6,7,8-tetrahydro[1,2,4]triazolo[4,3-a]pyridin-3(2H)-one]
575	O=C([C@@H]1CCCc2nn(Cc3ccc(C(F)(F)F)nc3)c(=O)n21)N1CC(F)C(F)C1 (single isomer, unassigned) [Example 553]

Continued, molecule first:

SMILES	IC50 [nM]
CO[C@H]1CCN(C(=O)[C@@H]2CCCc3nn(Cc4ccc(C)cc4)c(=O)n32)C1 [Example 130, (5S)-{[(3S)-3-Methoxypyrrolidin-1-yl]carbonyl}-2-(4-methylbenzyl)-5,6,7,8-tetrahydro[1,2,4]triazolo[4,3-a]pyridin-3(2H)-one]	50.5
Cc1ccc(Cn2nc3n(c2=O)C(C(=O)N2CC[C@H](O)C2)CCC3)cc1 (single isomer, unassigned) [Example 116]	3
O=C(C1CCCc2nn(Cc3ccc(Cl)cn3)c(=O)n21)N1CCCC1 (racemic) [Example 33, (5RS)-2-[(5-Chloropyridin-2-yl)methyl]-5-(pyrrolidin-1-ylcarbonyl)-5,6,7,8-tetrahydro[1,2,4]triazolo[4,3-a]pyridin-3(2H)-one]	7.7
O=C(C1CCCc2nn(Cc3ccc(C(F)(F)F)nc3)c(=O)n21)N1CCCC1 (single isomer, unassigned) [Example 85, (5RS)-5-(Pyrrolidin-1-ylcarbonyl)-2-{[6-(trifluoromethyl)pyridin-3-yl]methyl}-5,6,7,8-tetrahydro[1,2,4]triazolo[4,3-a]pyridin-3(2H)-one]	2.1
Cc1nc(Cn2nc3n(c2=O)C(C(=O)N2CCCC2)CCC3)no1 (racemic) [Example 12, (5RS)-2-[(5-Methyl-1,2,4-oxadiazol-3-yl)methyl]-5-(pyrrolidin-1-ylcarbonyl)-5,6,7,8-tetrahydro[1,2,4]triazolo[4,3-a]pyridin-3(2H)-one]	99.5
Cn1ccc(Cn2nc3n(c2=O)C(C(=O)N2CCC(F)(F)C2)CCC3)n1 (racemic) [Example 90, (5RS)-5-[(3,3-Difluoropyrrolidin-1-yl)carbonyl]-2-[(1-methyl-1H-pyrazol-3-yl)methyl]-5,6,7,8-tetrahydro[1,2,4]triazolo[4,3-a]pyridin-3(2H)-one]	9.8
O=C(C1C(C(F)(F)F)CCc2nn(Cc3ccnc(C(F)(F)F)c3F)c(=O)n21)N1CC(F)C1 (racemic) [Example 302, (5RS,6RS)-5-[(3-Fluoroazetidin-1-yl)carbonyl]-2-{[3-fluoro-2-(trifluoromethyl)pyridin-4-yl]methyl}-6-(trifluoromethyl)-5,6,7,8-tetrahydro[1,2,4]triazolo[4,3-a]pyridin-3(2H)-one]	49.5
Cc1nc(C)c(Cn2nc3n(c2=O)C(C(=O)N2CCCC2)CCC3)nc1C (racemic) [Example 103, (5RS)-5-(Pyrrolidin-1-ylcarbonyl)-2-[(3,5,6-trimethylpyrazin-2-yl)methyl]-5,6,7,8-tetrahydro[1,2,4]triazolo[4,3-a]pyridin-3(2H)-one]	0.16
O=C(C1CC(C(F)(F)F)Cc2nn(Cc3ccc(C(F)(F)F)nc3)c(=O)n21)N1CC(O)C1 (racemic) [Example 233, (5RS,7RS)-5-[(3-Hydroxyazetidin-1-yl)carbonyl]-7-(trifluoromethyl)-2-{[6-(trifluoromethyl)pyridin-3-yl]methyl}-5,6,7,8-tetrahydro[1,2,4]triazolo[4,3-a]pyridin-3(2H)-one]	203
CC1CCC(C(=O)N2C[C@@H](F)[C@@H](F)C2)n2c1nn(Cc1ccnc(C(F)(F)F)c1F)c2=O (mixture of isomers) [Example 322, (5RS,8RS)-5-{[(3R,4S)-3,4-Difluoropyrrolidin-1-yl]carbonyl}-2-{[3-fluoro-2-(trifluoromethyl)pyridin-4-yl]methyl}-8-methyl-5,6,7,8-tetrahydro[1,2,4]triazolo[4,3-a]pyridin-3(2H)-one]	0.94
O=C(C1CC(C(F)(F)F)Cc2nn(Cc3ccnc(C(F)(F)F)c3F)c(=O)n21)N1CC[C@H](F)C1 (single isomer, unassigned) [Example 257]	0.595
Cn1c(Cn2nc3n(c2=O)C(C(=O)N2CCCC2)CCC3)nc2ccccc21 (racemic) [Example 62, (5RS)-2-[(1-Methyl-1H-benzimidazol-2-yl)methyl]-5-(pyrrolidin-1-ylcarbonyl)-5,6,7,8-tetrahydro[1,2,4]triazolo[4,3-a]pyridin-3(2H)-one]	2
